# Experimental data reported in US20230173098A1, “NANOPARTICLE COMPLEX FOR ORAL ADMINISTRATION AND USES THEREOF” (IUCF-HYU (Industry-University Cooperation Foundation …, priority 2021, published 2023).
# Tests used:
# [1] = Photobleaching of Ce6 fluorescence under PDT laser (671 nm); type: physicochemical; settings: 10 minutes PDT laser 671 nm; Ce6 equivalent 2.5 μM in ethanol
# Protocol: In this case, each sample (Ce6 equivalent concentration of 2.5 μM) was dissolved in ethanol and irradiated with a PDT laser (MRL-III-671, 671±1 nm, China) for 10 minutes, and then the photobleaching of Ce6 fluorescence (λ excitation/λ emission=400 nm/671 nm) of each sample was measured according to laser irradiation time, and the results are illustrated in FIG. 10.
# [2] = Hydrophobic assay (water/octanol phase transition, absorbance at 400 nm and 671 nm); type: physicochemical; settings: dissolved in DW, octanol added
# [3] = test system: Caco-2 cell monolayer; type: in vitro ADME, human
# Protocol: Specifically, small intestine […] cells (Caco-2) were inoculated onto a Transwell insert with a diameter of 6.5 mm and a pore size of […] (seeding density: 2×10^4 cells/insert; Corning, Inc., Corning, N.Y., USA).
# After the Caco-2 were incubated for approximately 2 to 3 weeks in a CO2 incubator, trans epithelial electrical resistance (TEER) was measured using a voltmeter (EVOM^2; World Precision Instruments, Sarasota, Fla., USA) to confirm tight junctions. In this case, the TEER value […] was used for the assay. […] During the treatment, TEER values were measured at each designated time, and the results are illustrated in FIG. 18.
# Pretreated-Lf/Ce6-AuNP-Lf was used to examine passive transport excluding lactoferrin receptor (LfR)-mediated transport.
# Referring to this, Lf pretreatment (pretreated-Lf) was performed to saturate LfR expressed in the Caco-2 cell monolayer, and two hours after Lf pretreatment (pretreated-Lf), the medium was exchanged with a Ce6-AuNP-Lf-containing medium.
# [4] = test system: brain tumor cells (U87MG); assay: Uptake into brain tumor cells (confocal, FACS); type: cell-based, human; settings: Ce6 equivalent 2.5 μM, 18 hours
# Protocol: Next, DAPI mounting medium (Vector Laboratories, Inc., Burlingame, Calif., USA) was used and the intracellular Ce6 fluorescence was observed under a confocal microscope (TCS SP5, Leica, Germany).
# Meanwhile, flow cytometry (FACS Calibur™; BD Biosciences, Franklin Lakes, N.J.) was used to quantify the intracellular Ce6 fluorescence. […] After washing three times with PBS, the cells were detached with trypsin/EDTA, centrifuged for 3 minutes at 1000 rpm, and then analyzed with FACS.
# [5] = Surface charge measurement (Zetasizer Nano ZS); type: physicochemical; settings: mean±SEM, n=3, in mV (unit assumed)
# [6] = test system: brain tumor (U87MG) cells; assay: Phototherapy of brain tumor cells: viability, Annexin V/PI apoptosis, DCFH-DA ROS; type: cell-based, human; settings: PDT+PTT, 2.5 minutes each
# Protocol: Cell viability was measured with an EZ-Cytox kit.
# Meanwhile, the intracellular ROS generation by laser irradiation was measured using the fluorescent probe DCFH-DA according to the manufacturer's instructions. Annexin V-DY-634/PI apoptosis was used to evaluate apoptosis. That is, brain tumor (U87MG) cells were suspended in 400 μL binding buffer, and then stained with Annexin V-DY-634 (5 μL) at 2 to 8° C. for 15 minutes. Next, PI (5 μL) was added and the cells were incubated for 5 min. In this case, brain tumor (U87MG) cells were analyzed using FACS.
substance,measurement,setting,value
Chlorin e6 [Ce6],Ce6 fluorescence after PDT laser irradiation (photobleaching),[1],57.0±5.6%
same,hydrophobicity,[2],hydrophobic
same,transmittance / amount transported across the barrier,[3],about 47.6%
same,"amount of uptake into the cells (FACS, intracellular Ce6 fluorescence)",[4],43.6±2.2
same,surface charge,[5],−9.4±4.3
same,apoptotic cell population (Annexin-V+/PI+),[6],22.0%
